Source: patent US8513232B2, “Substituted spirocyclic piperidine derivatives as histamine-3 (H3) receptor ligands” (Cephalon, Inc., priority 2008, dated 2013)
Read-outs that look alike come from different tables or passages of the source.

Experiments:
[1] = target: T1, human H3 receptor (Homo sapiens, UniProt Q9Y5N1); experiment: Human H3 radioligand binding ([3H]-N-alpha-methylhistamine, SPA)
T1 construct: expressed in transfected cells
In short: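 Compounds (0.01 nM-30 μM) competed with approximately 1 nM [3H]-N-alpha-methylhistamine for human H3 receptor in membranes of stably transfected CHO cells, 10 μg protein per well, in Tris-HCl pH 7.4/MgCl2/BSA buffer for 4 h at room temperature. Bound radioligand measured by scintillation proximity; 10 μM clobenpropit gave non-specific binding.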

[2] = target: T2, rat histamine H3 receptor (Rattus norvegicus, UniProt Q9QYN8); experiment: Rat H3 radioligand binding ([3H]-N-alpha-methylhistamine, SPA)
T2 construct: encoding the entire 445-amino-acid rat histamine H3 receptor; expressed in transfected cells; membrane preparation
T2 sequence (Q9QYN8 whole entry): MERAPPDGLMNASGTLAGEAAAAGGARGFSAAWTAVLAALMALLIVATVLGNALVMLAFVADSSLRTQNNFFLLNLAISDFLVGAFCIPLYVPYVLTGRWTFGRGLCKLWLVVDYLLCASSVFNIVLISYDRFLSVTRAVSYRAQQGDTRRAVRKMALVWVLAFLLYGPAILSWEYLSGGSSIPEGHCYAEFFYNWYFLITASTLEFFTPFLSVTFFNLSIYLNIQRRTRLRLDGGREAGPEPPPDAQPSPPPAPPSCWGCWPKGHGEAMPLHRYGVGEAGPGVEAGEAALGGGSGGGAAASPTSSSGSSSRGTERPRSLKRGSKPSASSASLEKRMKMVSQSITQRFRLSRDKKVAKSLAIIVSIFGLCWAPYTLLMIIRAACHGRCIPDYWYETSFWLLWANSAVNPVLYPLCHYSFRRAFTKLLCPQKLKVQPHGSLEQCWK
In short: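 SPA-bead binding assay using [3H]-N-alpha-methylhistamine (approximately 1 nM final) with test compounds from 0.01 nM to 30 μM. Rat H3 receptor membranes came from stably transfected CHO-A3 cells; incubation ran 4 h at room temperature, in the dark, in Tris pH 7.4 buffer with MgCl2 and BSA. Clobenpropit (10 μM) gave non-specific binding.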

[3] = Human H3 binding, Table B, Examples 136-362, read-out: hum H3 binding Ki
[4] = Rat H3 binding, Table B, Examples 136-362, read-out: rat H3 binding Ki
[5] = human H3 binding, Table D, read-out: Human H3 Ki
[6] = rat H3 binding, Table D, read-out: Rat H3 Ki
[7] = Table A, human H3 binding, read-out: Human Ki
[8] = Table A, rat H3 binding, read-out: Rat Ki

T1 sequence (Q9Y5N1 whole entry): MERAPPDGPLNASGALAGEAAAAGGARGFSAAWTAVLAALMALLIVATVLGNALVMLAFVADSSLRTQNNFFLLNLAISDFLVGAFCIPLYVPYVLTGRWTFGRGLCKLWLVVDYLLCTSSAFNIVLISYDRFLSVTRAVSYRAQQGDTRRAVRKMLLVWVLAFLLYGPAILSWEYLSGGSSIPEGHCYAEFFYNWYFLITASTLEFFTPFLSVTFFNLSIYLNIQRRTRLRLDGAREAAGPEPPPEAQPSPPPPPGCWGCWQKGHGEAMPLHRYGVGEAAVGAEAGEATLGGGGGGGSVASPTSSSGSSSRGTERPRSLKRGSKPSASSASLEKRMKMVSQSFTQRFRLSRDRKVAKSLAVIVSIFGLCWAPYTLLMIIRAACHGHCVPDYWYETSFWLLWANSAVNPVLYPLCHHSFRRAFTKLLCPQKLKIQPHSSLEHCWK

melting point	Ki [1, 5]	Ki [2, 6]	SMILES	also measured
252 to 254 °C			O=S1(=O)CCC(Oc2ccc3c(c2)CCC2(CCN(C4CCC4)CC2)O3)C1 (stereo not drawn) [Example 490]	Ki ([1]; read-out: Human H3 Ki): < 200 nM; Ki ([2]; read-out: Rat H3 kI): < 200 nM
148 to 150 °C			OC(c1ccc2c(c1)COC1(CCN(C3CCC3)CC1)O2)C1CCCC1 (stereo not drawn) [Example 536]	Ki ([1]; read-out: Human H3 Ki): < 200 nM; Ki ([2]; read-out: Rat H3 kI): < 200 nM
182.5 to 183.5 °C			O=C(NCC(F)(F)F)N1CCN(c2ccc3c(c2)COC2(CCN(C4CCC4)CC2)O3)CC1 [Example 295]	Ki [1, 3]: < 200 nM; Ki [2, 4]: < 200 nM
69 to 72 °C	< 200 nM	< 200 nM	OC(c1ccncc1)c1ccc2c(c1)COC1(CCN(C3CCC3)CC1)O2 (stereo not drawn) [Example 683]	
> 245 °C (dec.)			CNC(=O)C1CCN(c2ccc3c(c2)COC2(CCN(C4CCC4)CC2)O3)CC1 [Example 453]	Ki ([1]; read-out: Human H3 Ki): < 200 nM; Ki ([2]; read-out: Rat H3 kI): < 200 nM
155 to 157 °C	< 200 nM	< 200 nM	COc1ccc2nc(C)n(-c3ccc4c(c3)COC3(CCN(C5CCC5)CC3)O4)c(=O)c2c1 [Example 794]	
117 to 118 °C			c1cc2c(cc1OCC1CCSCC1)CCC1(CCN(C3CCC3)CC1)O2 [Example 499]	Ki ([1]; read-out: Human H3 Ki): < 200 nM; Ki ([2]; read-out: Rat H3 kI): < 200 nM
65 to 68 °C	< 200 nM	< 200 nM	Cc1cc(=O)n(C(C)C)cc1-c1ccc2c(c1)COC1(CCN(C3CCC3)CC1)O2 [Example 759]	
131 to 133 °C	< 200 nM	< 200 nM	COC(=O)/C=C/c1ccc2c(c1)COC1(CCN(C3CCC3)CC1)O2 [Example 618]	
55.4 to 57.3 °C	< 200 nM	< 200 nM	COCCNC(=O)C1CCCN(c2ccc3c(c2)COC2(CCN(C4CCC4)CC2)O3)C1 (stereo not drawn) [Example 613]	
211 to 213 °C	< 200 nM	< 200 nM	CNC(=O)c1ccc(-c2ccc3c(c2)COC2(CCN(C4CCC4)CC2)O3)c(Cl)c1 [Example 685]	
140 to 141 °C	< 200 nM	< 200 nM	c1cc(-c2ccc3c(c2)COC2(CCN(C4CCC4)CC2)O3)[nH]n1 [Example 730]	
50 to 52 °C	< 200 nM	< 200 nM	COCCNC(=O)c1ccc(-c2ccc3c(c2)COC2(CCN(C4CCC4)CC2)O3)cc1OC [Example 634]	
165 to 168 °C			O=C1OCCN1c1ccc2c(c1)COC1(CCN(C3CCC3)CC1)O2 [Example 77]	Ki [1, 7]: < 200 nM; Ki [2, 8]: < 200 nM
257 °C	< 200 nM	< 200 nM	COCc1cc(-c2ccc3c(c2)COC2(CCN(C4CCC4)CC2)O3)cnc1OC [Example 804]	
106 to 108 °C			CC(C)Cn1cc(-c2ccc3c(c2)CCC2(CCN(C4CCC4)CC2)O3)cn1 [Example 187]	Ki [1, 3]: < 200 nM; Ki [2, 4]: < 200 nM
159 to 161 °C	< 200 nM	< 200 nM	CS(=O)(=O)c1ccc(-c2ccc3c(c2)COC2(CCN(C4CCC4)CC2)O3)s1 [Example 652]	
86 to 88 °C	< 200 nM	< 200 nM	CNC(=O)CCc1ccc2c(c1)COC1(CCN(C3CCC3)CC1)O2 [Example 653]	
105.2 to 106.9 °C			O=C(c1ccc(-c2ccc3c(c2)COC2(CCN(C4CCC4)CC2)O3)cc1F)N1CCC(O)CC1 [Example 222]	Ki [1, 3]: < 200 nM; Ki [2, 4]: < 200 nM
255 to 257 °C			CNC(=O)c1cc(Oc2ccc3c(c2)CCC2(CCN(C4CCC4)CC2)O3)ccn1 [Example 281]	Ki [1, 3]: < 200 nM; Ki [2, 4]: < 200 nM

melting point	Ki [1, 5]	Ki [2, 6]	SMILES	also measured
194 to 197 °C	< 200 nM	< 200 nM	O=c1cc(-c2ccc3c(c2)COC2(CCN(C4CCC4)CC2)O3)c(Cl)cn1CC(F)(F)F [Example 781]	
182 to 184 °C			O=C1CC(c2ccc3c(c2)COC2(CCN(C4CCC4)CC2)O3)CCN1 (stereo not drawn) [Example 565]	Ki ([1]; read-out: Human H3 Ki): < 200 nM; Ki ([2]; read-out: Rat H3 kI): < 200 nM
65 to 70 °C			O=c1ccc(-c2ccc3c(c2)COC2(CCN(C4CCC4)CC2)O3)cn1CC(F)F [Example 555]	Ki ([1]; read-out: Human H3 Ki): < 200 nM; Ki ([2]; read-out: Rat H3 kI): < 200 nM
184 to 185 °C	< 200 nM	< 200 nM	Cc1cc(C(=O)NC2CCOCC2)ccc1-c1ccc2c(c1)COC1(CCN(C3CCC3)CC1)O2 [Example 687]	
120 to 125 °C			CN1CC(c2ccc3c(c2)COC2(CCN(C4CCC4)CC2)O3)CCC1=O (stereo not drawn) [Example 550]	Ki ([1]; read-out: Human H3 Ki): < 200 nM; Ki ([2]; read-out: Rat H3 kI): < 200 nM
180 to 182 °C	< 200 nM	< 200 nM	Cc1cc(C(N)=O)ccc1-c1ccc2c(c1)COC1(CCN(C3CCC3)CC1)O2 [Example 693]	
185 to 186 °C			O=C(c1ccc(-c2ccc3c(c2)COC2(CCN(C4CCC4)CC2)O3)cc1)N1CC[C@@H](F)C1 [Example 69]	Ki [1, 7]: < 200 nM; Ki [2, 8]: < 200 nM
101 to 103 °C	< 200 nM	< 200 nM	CC(C)c1nnc(CCc2ccc3c(c2)COC2(CCN(C4CCC4)CC2)O3)o1 [Example 695]	
216 to 217 °C			O=C(Nc1cccc(Cl)c1)Nc1ccc2c(c1)COC1(CCN(C3CCC3)CC1)O2 [Example 186]	Ki [1, 3]: < 200 nM; Ki [2, 4]: < 200 nM
58 to 60 °C	< 200 nM	200 to 1000 nM	Cc1cccc(C)c1-c1ccc2c(c1)COC1(CCN(C3CCC3)CC1)O2 [Example 756]	
187 to 188 °C			O=C(Nc1ccc2c(c1)COC1(CCN(C3CCC3)CC1)O2)c1ccnc(F)c1 [Example 291]	Ki [1, 3]: < 200 nM; Ki [2, 4]: < 200 nM
235 to 237 °C			O=C1CCC(=O)N1CCCOc1ccc2c(c1)CCC1(CCN(C3CCC3)CC1)O2 [Example 460]	Ki ([1]; read-out: Human H3 Ki): < 200 nM; Ki ([2]; read-out: Rat H3 kI): < 200 nM
228 to 229 °C			O=C(Nc1ccc2c(c1)COC1(CCN(C3CCC3)CC1)O2)C1CCOCC1 [Example 349]	Ki [1, 3]: < 200 nM; Ki [2, 4]: < 200 nM
208.4 to 210.6 °C			CC(C)C(=O)NC1CCN(c2ccc3c(c2)COC2(CCN(C4CCC4)CC2)O3)CC1 [Example 324]	Ki [1, 3]: < 200 nM; Ki [2, 4]: < 200 nM
145 to 147 °C			COCCNC(=O)c1ccc(-c2ccc3c(c2)COC2(CCN(C4CCC4)CC2)O3)cc1 [Example 26]	Ki [1, 7]: < 200 nM; Ki [2, 8]: < 200 nM
97 to 99 °C			CCCn1cc(-c2ccc3c(c2)CCC2(CCN(C4CCC4)CC2)O3)cn1 [Example 183]	Ki [1, 3]: < 200 nM; Ki [2, 4]: < 200 nM
205 to 207 °C			O=C(Nc1ccc2c(c1)COC1(CCN(C3CCC3)CC1)O2)c1ccnc(N2CCOCC2)c1 [Example 313]	Ki [1, 3]: < 200 nM; Ki [2, 4]: < 200 nM
182 to 185 °C			O=C1N(c2ccccc2)CCN1c1ccc2c(c1)CCC1(CCN(C3CCC3)CC1)O2 [Example 229]	Ki [1, 3]: < 200 nM; Ki [2, 4]: < 200 nM
202 to 204 °C	< 200 nM	< 200 nM	O=c1[nH]cc(-c2ccc3c(c2)COC2(CCN(C4CCC4)CC2)O3)c2ccccc12 [Example 777]	
